Patent US20230143604A1, “QW DOSING OF GIP RECEPTOR AGONIST PEPTIDE COMPOUNDS AND USES THEREOF” (TAKEDA PHARMACEUTICAL COMPANY LIMITED, priority 2020, published 2023)
Starred links: 1 amine or outer side, 2 acyl side, 3 side chain; linkers in the order of their positions; H or OH if unused. Non-standard residues stand in square brackets, D forms with d. Residues, ends and D or L forms follow the SMILES beside them. Groups on a side chain read outwards from the residue. No end group written: not given here. *: point of attachment. C18 diacid = O=C(O)CCCCCCCCCCCCCCCCC(=O)*; γGlu = O=C(O)[C@H](CCC(=O)[*:2])N[*:1]; NMeY = CN[C@@H](Cc1ccc(O)cc1)C(=O)O; AEEA = NCCOCCOCC(=O)O; Aib = CC(C)(N)C(=O)O

Columns and labels:
physchem = test: physchem
Procedure, shortened: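 3 mg of peptide treated with 100 μL portions of 200 mM phosphate buffer pH 7.4, sonicating/vortexing up to 1 min, with further buffer added until fully dissolved. Solubility then quantified by HPLC.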

human GLP-1R = target: T1, human GLP-1R (Homo sapiens, UniProt P43220); test: Human GLP1R agonist activity, intracellular cAMP accumulation; type: cell-based; settings: HEK-293T cells overexpressing human GLP-1R, 1 hr, read-out: Human GLP1R cAMP EC50, HEK293T
T1 construct: HEK-293T cells overexpressing full-length human GLP-1R; FLAG (N); host or cells: HEK-293T
T1 sequence (P43220 24-463): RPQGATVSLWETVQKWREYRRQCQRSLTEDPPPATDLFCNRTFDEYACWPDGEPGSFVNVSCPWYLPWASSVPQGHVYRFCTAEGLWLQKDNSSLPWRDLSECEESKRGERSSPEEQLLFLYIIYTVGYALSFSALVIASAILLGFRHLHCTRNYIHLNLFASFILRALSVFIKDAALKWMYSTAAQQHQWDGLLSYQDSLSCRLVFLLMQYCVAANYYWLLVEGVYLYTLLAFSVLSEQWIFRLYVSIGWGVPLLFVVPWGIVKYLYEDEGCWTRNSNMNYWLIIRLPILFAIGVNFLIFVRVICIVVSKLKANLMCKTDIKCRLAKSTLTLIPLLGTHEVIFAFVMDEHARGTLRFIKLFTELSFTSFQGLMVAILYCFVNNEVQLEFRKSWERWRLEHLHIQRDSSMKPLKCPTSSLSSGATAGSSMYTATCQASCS
Method: Cells are cultured per the manufacturer's protocol in DMEM with 10% fetal bovine serum and 1 μg/mL puromycin and stored in frozen aliquots to be used as assay ready cells. On the day of the assay, cells are removed from frozen storage, washed two times in 1× Kreb's Ringer Buffer (Zenbio, Research Triangle Park, N.C.), and re-suspended to a concentration of 4×10^5 cells/mL in 1× Kreb's Ringer Buffer. […] Cells are incubated with test compound for 1 hr at room temperature in the dark, and cAMP accumulation is measured using the Cisbio HiRange cAMP assay kit (Bedford, Mass.) per the manufacturer's protocol. Anti-cAMP antibody and d2-cAMP tracer reagents diluted in lysis/detection buffer are incubated in the dark for 1 hr, and results are measured on an Envision plate reader (Perkin Elmer, Waltham, Mass.). Data is normalized using 1 nm GLP-1 as 100% activity, and DMSO alone as 0% activity.

[1] = target: full-length human GLP-1R with an N-terminal FLAG tag, overexpressed on HEK-293T cells (human, UniProt P43220 24-463); test: cell-based or functional assay
[2] = target: T2, full-length human GIPR with an N-terminal FLAG tag, overexpressed on HEK-293T cells (human, UniProt P48546 22-466); test: cell-based or functional assay
T2 sequence (looked up): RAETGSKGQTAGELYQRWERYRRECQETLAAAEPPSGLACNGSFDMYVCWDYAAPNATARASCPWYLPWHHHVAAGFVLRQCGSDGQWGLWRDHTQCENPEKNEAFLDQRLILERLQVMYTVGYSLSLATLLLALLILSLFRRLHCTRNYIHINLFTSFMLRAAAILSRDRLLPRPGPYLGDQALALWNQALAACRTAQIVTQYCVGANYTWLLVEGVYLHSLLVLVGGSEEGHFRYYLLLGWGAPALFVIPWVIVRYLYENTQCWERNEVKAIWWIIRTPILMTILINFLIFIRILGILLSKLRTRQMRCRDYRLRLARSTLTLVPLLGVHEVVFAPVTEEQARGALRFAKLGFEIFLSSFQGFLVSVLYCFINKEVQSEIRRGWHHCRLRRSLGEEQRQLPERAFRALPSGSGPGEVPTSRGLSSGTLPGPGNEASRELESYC

With `CC[C@H](C)[C@H](NC(=O)[C@H](CO)NC(=O)[C@H](Cc1ccc(O)cc1)NC(=O)[C@H](CC(=O)O)NC(=O)[C@H](CO)NC(=O)[C@@H](NC(=O)[C@H](Cc1ccccc1)NC(=O)[C@@H](NC(=O)CNC(=O)[C@H](CCC(=O)O)NC(=O)C(C)(C)NC(=O)[C@H](Cc1ccc(O)cc1)NC)[C@@H](C)O)[C@@H](C)CC)C(=O)N[C@@H](C)C(=O)N[C@@H](CCCCNC(=O)CNC(=O)CNC(=O)CNC(=O)CNC(=O)CNC(=O)CCCCCCCCCCCCCCCCC(=O)O)C(=O)N[C@@H](CC(=O)O)C(=O)N[C@@H](CO)C(=O)NC(C)(C)C(=O)N[C@@H](C)C(=O)N[C@@H](CCC(N)=O)C(=O)NC(C)(C)C(=O)N[C@@H](CC(=O)O)C(=O)N[C@@H](Cc1ccccc1)C(=O)N[C@H](C(=O)N[C@@H](CC(N)=O)C(=O)N[C@@H](Cc1c[nH]c2ccccc12)C(=O)N[C@@H](CC(C)C)C(=O)N[C@@H](CC(C)C)C(=O)N[C@@H](C)C(=O)N[C@@H](CCC(N)=O)C(=O)N[C@@H](CO)C(=O)NCC(=O)O)C(C)C` [Compound 60] the solubility (physchem; pH 7.4) was ≥ 15 mg/mL, the solubility (physchem; pH 7.4, aqueous buffer) was ≥ 30 mg/mL and the EC50 (human GLP-1R) was 100 nM.

For `CC[C@H](C)[C@H](NC(=O)[C@H](CO)NC(=O)[C@H](Cc1ccc(O)cc1)NC(=O)[C@H](CC(=O)O)NC(=O)[C@H](CO)NC(=O)[C@@H](NC(=O)[C@H](Cc1ccccc1)NC(=O)[C@@H](NC(=O)CNC(=O)[C@H](CCC(=O)O)NC(=O)C(C)(C)NC(=O)[C@H](Cc1ccc(O)cc1)NC)[C@@H](C)O)[C@@H](C)CC)C(=O)N[C@@H](C)C(=O)N[C@@H](CCCCNC(=O)CNC(=O)CNC(=O)CNC(=O)CNC(=O)CNC(=O)CCCCCCCCCCCCCCCCC(=O)O)C(=O)N[C@@H](CC(=O)O)C(=O)N[C@@H](CO)C(=O)NC(C)(C)C(=O)N[C@@H](C)C(=O)N[C@@H](CCC(N)=O)C(=O)NC(C)(C)C(=O)N[C@@H](CC(=O)O)C(=O)N[C@@H](Cc1ccccc1)C(=O)N[C@H](C(=O)N[C@@H](CC(N)=O)C(=O)N[C@@H](Cc1c[nH]c2ccccc12)C(=O)N[C@@H](CC(C)C)C(=O)N[C@@H](CC(C)C)C(=O)N[C@@H](C)C(=O)N[C@@H](CCC(N)=O)C(=O)N[C@@H](CCCCN)C(=O)NCC(=O)O)C(C)C` [Compound 75], the solubility (physchem; pH 7.4) was ≥ 15 mg/mL, the solubility (physchem; pH 7.4, aqueous buffer) was ≥ 30 mg/mL and the EC50 (human GLP-1R) was 550 nM.

In the case of `CC[C@H](C)[C@H](NC(=O)[C@H](CO)NC(=O)[C@H](Cc1ccc(O)cc1)NC(=O)[C@H](CC(=O)O)NC(=O)[C@H](CO)NC(=O)[C@@H](NC(=O)[C@H](Cc1ccccc1)NC(=O)[C@@H](NC(=O)CNC(=O)[C@H](CCC(=O)O)NC(=O)C(C)(C)NC(=O)[C@H](Cc1ccc(O)cc1)NC)[C@@H](C)O)[C@@H](C)CC)C(=O)N[C@@H](C)C(=O)N[C@@H](CCCCNC(=O)CNC(=O)CNC(=O)CNC(=O)CNC(=O)CNC(=O)CCCCCCCCCCCCCCCCC(=O)O)C(=O)N[C@@H](CC(=O)O)C(=O)N[C@@H](CCCCN)C(=O)NC(C)(C)C(=O)N[C@@H](C)C(=O)N[C@@H](CCC(N)=O)C(=O)NC(C)(C)C(=O)N[C@@H](CC(=O)O)C(=O)N[C@@H](Cc1ccccc1)C(=O)N[C@H](C(=O)N[C@@H](CC(N)=O)C(=O)N[C@@H](Cc1c[nH]c2ccccc12)C(=O)N[C@@H](CC(C)C)C(=O)N[C@@H](CC(C)C)C(=O)N[C@@H](C)C(=O)N[C@@H](CCC(N)=O)C(=O)N[C@@H](CCCCN)C(=O)NCC(=O)O)C(C)C` [Compound 76], the solubility (physchem; pH 7.4) is reported as ≥ 15 mg/mL, the solubility (physchem; pH 7.4, aqueous buffer) is reported as ≥ 30 mg/mL and the EC50 (human GLP-1R) is reported as 28.8 nM.

With `CC[C@H](C)[C@H](NC(=O)[C@H](Cc1ccccc1)NC(=O)[C@@H](NC(=O)CNC(=O)[C@H](CCC(=O)O)NC(=O)C(C)(C)NC(=O)[C@H](Cc1ccc(O)cc1)NC)[C@@H](C)O)C(=O)N[C@@H](CO)C(=O)N[C@@H](CC(=O)O)C(=O)N[C@@H](Cc1ccc(O)cc1)C(=O)N[C@@H](CO)C(=O)N[C@H](C(=O)NC(C)(C)C(=O)N[C@@H](CC(C)C)C(=O)N[C@@H](CC(=O)O)C(=O)N[C@@H](CO)C(=O)N[C@@H](CCCCNC(=O)CNC(=O)CNC(=O)CNC(=O)CNC(=O)CNC(=O)CCCCCCCCCCCCCCCCC(=O)O)C(=O)N[C@@H](C)C(=O)N[C@@H](CCC(N)=O)C(=O)NC(C)(C)C(=O)N[C@@H](CC(=O)O)C(=O)N[C@@H](Cc1ccccc1)C(=O)N[C@H](C(=O)N[C@@H](CC(N)=O)C(=O)N[C@@H](Cc1c[nH]c2ccccc12)C(=O)N[C@@H](CC(C)C)C(=O)N[C@@H](CC(C)C)C(=O)N[C@@H](C)C(=O)N[C@@H](CCC(N)=O)C(=O)N[C@@H](CCCCN)C(=O)NCC(=O)O)C(C)C)[C@@H](C)CC` [Compound 77] the solubility (physchem; pH 7.4) was ≥ 15 mg/mL, the solubility (physchem; pH 7.4, aqueous buffer) was ≥ 30 mg/mL and the EC50 (human GLP-1R) was 17 nM.

Work on `CC[C@H](C)[C@H](NC(=O)[C@H](Cc1ccccc1)NC(=O)[C@@H](NC(=O)CNC(=O)[C@H](CCC(=O)O)NC(=O)C(C)(C)NC(=O)[C@H](Cc1ccc(O)cc1)NC)[C@@H](C)O)C(=O)N[C@@H](CO)C(=O)N[C@@H](CC(=O)O)C(=O)N[C@@H](Cc1ccc(O)cc1)C(=O)N[C@@H](CO)C(=O)N[C@H](C(=O)NC(C)(C)C(=O)N[C@@H](CC(C)C)C(=O)N[C@@H](CC(=O)O)C(=O)N[C@@H](CCCNC(=N)N)C(=O)NC(C)(C)C(=O)N[C@@H](C)C(=O)N[C@@H](CCC(N)=O)C(=O)NC(C)(C)C(=O)N[C@@H](CCCCNC(=O)COCCOCCNC(=O)COCCOCCNC(=O)CCCCCCCCCCCCCCCCC(=O)O)C(=O)N[C@@H](Cc1ccccc1)C(=O)N[C@H](C(=O)N[C@@H](CC(N)=O)C(=O)N[C@@H](Cc1c[nH]c2ccccc12)C(=O)N[C@@H](CC(C)C)C(=O)N[C@@H](CC(C)C)C(=O)N[C@@H](C)C(=O)N[C@@H](CCC(N)=O)C(=O)N[C@@H](CCCNC(=N)N)C(=O)NCC(=O)O)C(C)C)[C@@H](C)CC` [Compound 219] (H-[NMeY][Aib]EGTFISDYSI[Aib]LDR[Aib]AQ[Aib]K([AEEA-AEEA-C18 diacid])FVNWLLAQRG-OH) yielded an EC50 (human GLP-1R) of 17.4 nM.

B1: Compound No. 219 (peptide)
peptide: [NMeY][Aib]EGTFISDYSI[Aib]LDR[Aib]AQ[Aib]K([AEEA-AEEA-C18 diacid])FVNWLLAQRG-OH
For B1, the “Human GLP1R cAMP EC50, HEK293T” value [1] was 17.4 nM and the “Human GIPR cAMP EC50, HEK293T” value [2] was 0.8 pM.

B2: Compound No. 215 (peptide)
peptide: [NMeY][Aib]EGTFISDYSI[Aib]LDR[Aib]AQAK([AEEA-AEEA-γGlu-γGlu-C18 diacid])FVNWLLAQRG-OH
In the case of B2, the “Human GLP1R cAMP EC50, HEK293T” value [1] is reported as 61.7 nM and the “Human GIPR cAMP EC50, HEK293T” value [2] is reported as 0.5 pM.

B3: Compound No. 217 (peptide)
peptide: [NMeY][dA]EGTFISDYSI[Aib]LDR[Aib]AQ[Aib]K([AEEA-AEEA-γGlu-γGlu-C18 diacid])FVNWLLAQRG-OH
With B3 the “Human GLP1R cAMP EC50, HEK293T” value [1] was 135 nM and the “Human GIPR cAMP EC50, HEK293T” value [2] was 0.6 pM.

B4: Compound No. 216 (peptide)
peptide: [NMeY][Aib]EGTFISDYSIALDRAAQAK([AEEA-AEEA-γGlu-γGlu-C18 diacid])FVNWLLAQRG-OH
For B4, the “Human GLP1R cAMP EC50, HEK293T” value [1] was 79.4 nM and the “Human GIPR cAMP EC50, HEK293T” value [2] was 0.5 pM.

B5: Compound No. 214 (peptide)
peptide: [NMeY][Aib]EGTFISDYSI[Aib]LDRAAQ[Aib]K([AEEA-AEEA-γGlu-γGlu-C18 diacid])FVNWLLAQRG-OH
With B5 the “Human GLP1R cAMP EC50, HEK293T” value [1] was 28.8 nM and the “Human GIPR cAMP EC50, HEK293T” value [2] was 1.4 pM.

B6: Compound No. 218 (peptide)
peptide: [NMeY]AEGTFISDYSI[Aib]LDR[Aib]AQ[Aib]K([AEEA-AEEA-γGlu-γGlu-C18 diacid])FVNWLLAQRG-OH
In the case of B6, the “Human GLP1R cAMP EC50, HEK293T” value [1] is reported as 38 nM and the “Human GIPR cAMP EC50, HEK293T” value [2] is reported as 0.5 pM.
